# Experimental data as given in ChEMBL document CHEMBL4229345, “Inhibition of trypanosome alternative oxidase without its N-terminal mitochondrial targeting signal (ΔMTS-TAO) by cationic and non-cationic 4-hydroxybenzoate and 4-alkoxybenzaldehyde derivatives active against T. brucei and T. congolense” (Eur J Med Chem, 2018).
# Calls of active or inactive are those of the source. The calls are words filed in the database; no cut-off is given here.
# Tests used:
# [1] = Selectivity index, ratio of CC50 for HFF cells to EC50 for bloodstream trypomastigote stage of wild-type Trypanosoma brucei brucei Lister 427; type: toxicity; conditions: human, read-out: Ratio CC50/EC50
# [2] = test system: Trypanosoma brucei; experiment: Anti-parasitic activity against bloodstream trypomastigote stage of pentamidine/diminazene/melaminophenyl arsenical resistant Trypanosoma brucei B48 after 48 hrs by resazurin-based assay; type: functional, organism-based; conditions: B48, 48 h
# [3] = test system: Trypanosoma brucei brucei; experiment: Resistance factor, ratio of EC50 for bloodstream trypomastigote stage of Trypanosoma brucei brucei with AQP2/3-dd knock out to EC50 for bloodstream trypomastigote stage of wild-type Trypanosoma brucei brucei Lister 427; type: functional
# [4] = Stability in mouse serum assessed as parent compound remaining after 0.25 to 24 hrs by LC/MS analysis; type: ADME, cell-free
# [5] = Inhibition of recombinant N-terminal His6 tagged SUMO-fused Trypanosoma brucei brucei TC221 TAO MTS deletion mutant expressed in Escherichia coli FN102 preincubated for 2 mins followed by ubiquinol-1 addition measured over 2 mins by double beam-dual wavelength UV-spectrophotometry
# [6] = test system: Trypanosoma brucei brucei; experiment: Anti-parasitic activity against bloodstream trypomastigote stage of wild-type Trypanosoma brucei brucei Lister 427 after 48 hrs in presence of 5 mM glycerol by resazurin-based assay; type: functional, organism-based; conditions: Lister 427, 48 h
# [7] = Stability in mouse serum assessed as parent compound recovery after 15 mins by LC/MS analysis; type: ADME, cell-free; conditions: read-out: Drug recovery
# [8] = test system: Trypanosoma brucei brucei; experiment: Anti-parasitic activity against bloodstream trypomastigote stage of Trypanosoma brucei brucei with AQP2/3-dd knock out after 48 hrs by resazurin-based assay; type: functional, organism-based
# [9] = Cytotoxicity against HFF cells assessed as reduction in cell viability after 30 hrs by resazurin-based assay; conditions: human
# [10] = test system: Trypanosoma brucei brucei; experiment: Anti-parasitic activity against bloodstream trypomastigote stage of wild-type Trypanosoma brucei brucei Lister 427 after 48 hrs by resazurin-based assay; type: functional, organism-based; conditions: Lister 427, 48 h
# [11] = Selectivity index, ratio of CC50 for HFF cells to EC50 for bloodstream form of Trypanosoma congolense IL3000; type: toxicity; conditions: human, read-out: Ratio CC50/EC50
# [12] = test system: Trypanosoma brucei brucei; experiment: Anti-parasitic activity against bloodstream trypomastigote stage of Trypanosoma brucei brucei with AQP triple knock out after 48 hrs by resazurin-based assay; type: functional, organism-based
# [13] = test system: Trypanosoma brucei brucei; experiment: Resistance factor, ratio of EC50 for bloodstream trypomastigote stage of wild-type Trypanosoma brucei brucei Lister 427 in presence of 5 mM glycerol to EC50 for bloodstream trypomastigote stage of wild-type Trypanosoma brucei brucei Lister 427; type: functional
# [14] = test system: Trypanosoma brucei brucei; experiment: Resistance factor, ratio of EC50 for bloodstream trypomastigote stage of Trypanosoma brucei brucei AQP triple knock out to EC50 for bloodstream trypomastigote stage of wild-type Trypanosoma brucei brucei Lister 427; type: functional
# [15] = Resistance factor, ratio of EC50 for bloodstream trypomastigote stage of pentamidine/diminazene/melaminophenyl arsenical resistant Trypanosoma brucei B48 to EC50 for bloodstream trypomastigote stage of wild-type Trypanosoma brucei brucei Lister 427; type: functional
# [16] = test system: Trypanosoma congolense; experiment: Anti-parasitic activity against bloodstream form of Trypanosoma congolense IL3000 after 48 hrs by resazurin-based assay; type: functional, organism-based; conditions: IL3000, 48 h
# [17] = Protein binding in mouse serum up to 24 hrs by LC/MS analysis; type: ADME, cell-free; conditions: read-out: PB (converted)
# [18] = Stability in horse serum assessed as compound receovery after 24 hrs by LC/MS analysis; type: ADME, cell-free, Equus caballus; conditions: read-out: Drug recovery
# [19] = Stability in mouse serum assessed as compound hydrolysis after 24 hrs by LC/MS analysis; type: ADME, cell-free; conditions: read-out: Drug degradation
# [20] = test system: Trypanosoma brucei brucei; experiment: Potency index, ratio of diminazene EC50 to test compound EC50 for anti-parasitic activity against bloodstream trypomastigote stage of wild-type Trypanosoma brucei brucei Lister 427; type: functional
# [21] = Stability in horse serum assessed as compound hydrolysis after 2 hrs by LC/MS analysis; type: ADME, cell-free, Equus caballus; conditions: read-out: Drug degradation
# [22] = Half life in mouse serum by LC/MS analysis; type: ADME, cell-free
# [23] = Stability in mouse serum assessed as compound hydrolysis after 2 hrs by LC/MS analysis; type: ADME, cell-free; conditions: read-out: Drug degradation
# [24] = test system: Trypanosoma congolense; experiment: Potency index, ratio of diminazene EC50 to test compound EC50 for anti-parasitic activity against bloodstream form of Trypanosoma congolense IL3000; type: functional
# [25] = Non-competitive inhibition of Trypanosoma brucei brucei TC221 TAO expressed in Escherichia coli FN102 assessed as reduction in ubiquinoldependent oxygen consumption by spectrophotometry
# [26] = test system: Trypanosoma brucei brucei; experiment: Anti-parasitic activity against bloodstream trypomastigote stage of wild-type Trypanosoma brucei brucei Lister 427; type: functional
# [27] = Drug metabolism in human liver microsomes assessed as CYP450 mediated compound hydrolysis by measuring parent compound remaining at 5 uM measured immediately in presence of NADPH by RP-HPLC analysis; type: ADME; conditions: read-out: Stability
# [28] = Drug metabolism in human liver microsomes assessed as CYP450 mediated compound hydrolysis by measuring parent compound remaining at 5 uM measured after 60 mins in presence of NADPH by RP-HPLC analysis; type: ADME; conditions: read-out: Stability
# [29] = Drug metabolism in human liver S9 fraction assessed as CYP450 mediated compound hydrolysis by measuring parent compound remaining at 5 uM measured after 30 mins in presence of NADPH by RP-HPLC analysis; type: ADME, subcellular; conditions: read-out: Stability
# [30] = Drug metabolism in human liver S9 fraction assessed as CYP450 mediated compound hydrolysis by measuring parent compound remaining at 5 uM measured immediately in presence of NADPH by RP-HPLC analysis; type: ADME, subcellular; conditions: read-out: Stability
# [31] = Drug metabolism in human liver S9 fraction assessed as UGT mediated compound hydrolysis by measuring parent compound remaining at 5 uM measured after 30 mins in presence of UDPGA by RP-HPLC analysis; type: ADME, subcellular; conditions: read-out: Stability
# [32] = Drug metabolism in human liver S9 fraction assessed as UGT mediated compound hydrolysis by measuring parent compound remaining at 5 uM measured after 60 mins in presence of UDPGA by RP-HPLC analysis; type: ADME, subcellular; conditions: read-out: Stability
# [33] = Competitive inhibition of recombinant N-terminal His6 tagged SUMO-fused Trypanosoma brucei brucei TC221 TAO MTS deletion mutant expressed in Escherichia coli FN102 preincubated for 2 mins followed by ubiquinol-1 addition measured over 2 mins by Lineweaver-Burk plot analysis
# [34] = Drug metabolism in human liver microsomes assessed as CYP450 mediated compound hydrolysis by measuring parent compound remaining at 5 uM measured after 15 mins in presence of NADPH by RP-HPLC analysis; type: ADME; conditions: read-out: Stability
# [35] = Drug metabolism in human liver S9 fraction assessed as CYP450 mediated compound hydrolysis by measuring parent compound remaining at 5 uM measured after 120 mins in presence of NADPH by RP-HPLC analysis; type: ADME, subcellular; conditions: read-out: Stability
# [36] = test system: Trypanosoma brucei rhodesiense; experiment: (§1) In vivo anti-parasitic activity against luciferase tagged Trypanosoma brucei rhodesiense STIB900 infected in NMRI mouse assessed as reduction in parasitemia at 10 mg/kg, ip for 4 consecutive days starting at day 3 post infection and measured after last treatment on day 7 (reference value: 0%); type: functional; set-up: scale not given: the % may be the effect or the level left
# [37] = Drug metabolism in human liver S9 fraction assessed as CYP450 mediated compound hydrolysis by measuring parent compound remaining at 5 uM measured after 15 mins in presence of NADPH by RP-HPLC analysis; type: ADME, subcellular; conditions: read-out: Stability
# [38] = Stability in horse serum assessed as compound hydrolysis after 24 hrs by LC/MS analysis; type: ADME, cell-free, Equus caballus; conditions: read-out: Drug degradation
# [39] = test system: Trypanosoma brucei rhodesiense; experiment: as §1, with “measured 3 days hrs” for “measured”, “10” for “7”; type: functional; set-up: scale not given: the % may be the effect or the level left
# [40] = Drug metabolism in human liver S9 fraction assessed as UGT mediated compound hydrolysis by measuring parent compound remaining at 5 uM measured after 120 mins in presence of UDPGA by RP-HPLC analysis; type: ADME, subcellular; conditions: read-out: Stability
# [41] = Drug metabolism in human liver S9 fraction assessed as UGT mediated compound hydrolysis by measuring parent compound remaining at 5 uM measured after 15 mins in presence of UDPGA by RP-HPLC analysis; type: ADME, subcellular; conditions: read-out: Stability
# [42] = Drug metabolism in human liver S9 fraction assessed as UGT mediated compound hydrolysis by measuring parent compound remaining at 5 uM measured immediately in presence of UDPGA by RP-HPLC analysis; type: ADME, subcellular; conditions: read-out: Stability
# [43] = Drug metabolism in human liver S9 fraction assessed as CYP450 mediated compound hydrolysis by measuring parent compound remaining at 5 uM measured after 60 mins in presence of NADPH by RP-HPLC analysis; type: ADME, subcellular; conditions: read-out: Stability
# [44] = Drug metabolism in human liver microsomes assessed as CYP450 mediated compound hydrolysis by measuring parent compound remaining at 5 uM measured after 120 mins in presence of NADPH by RP-HPLC analysis; type: ADME; conditions: read-out: Stability
# [45] = Drug metabolism in human liver microsomes assessed as CYP450 mediated compound hydrolysis by measuring parent compound remaining at 5 uM measured after 30 mins in presence of NADPH by RP-HPLC analysis; type: ADME; conditions: read-out: Stability
# [46] = test system: Trypanosoma brucei rhodesiense; experiment: In vivo anti-parasitic activity against luciferase tagged Trypanosoma brucei rhodesiense STIB900 infected in NMRI mouse assessed as cured mouse at 10 mg/kg, ip for 4 consecutive days starting at day 3 post infection; type: functional, organism-based
Compound,selectivity ratio [1],EC50 [2],Ratio EC50 [3],IC50 [5],EC50 [6],EC50 [8],CC50 at 30 h [9],EC50 [10],selectivity ratio [11],EC50 [12],Ratio EC50 [13],Ratio EC50 [14],Ratio EC50 [15],EC50 [16],metabolised at 24 h [19],Ratio EC50 [20],Ratio EC50 [24],further results
O=Cc1ccc(OCCCCCCCCCCCCCC[P+](c2ccccc2)(c2ccccc2)c2ccccc2)cc1O.[Br-],> 1500,110 nM,0.32,220 nM,67 nM,42 nM,> 200000 nM,133 nM,> 740,53 nM,0.51,0.4,0.8,270 nM,–,–,–,Stability [4]: Stable; remaining at 0.25 h [7]: 12%; fraction unbound at 24 h [17]: 0.1
COc1ccc([C@@H]2Sc3ccccc3N(CCN(C)C)C(=O)[C@@H]2OC(C)=O)cc1 [DILTIAZEM],–,–,–,–,–,–,–,–,–,–,–,–,–,–,–,–,–,remaining at 24 h [18]: 1%
Cc1cc(O)ccc1C(=O)OCCCCCCCCCCCCCC[P+](c1ccccc1)(c1ccccc1)c1ccccc1.[Br-],> 83000,2.2 nM,0.92,81 nM,3.2 nM,2.2 nM,> 200000 nM,2.4 nM,> 5130,5 nM,1.32,2,0.9,39 nM,> 99%,5 - 40,5 - 40,metabolised at 2 h [21]: < 20%; half-life [22]: 1 h; metabolised at 2 h [23]: 70%
C/C(=C\Cc1c(O)c(Cl)c(C)c(C=O)c1O)CC/C=C(\C)[C@@H]1CC(=O)C(C)(C)O1 [ASCOFURANONE],–,–,–,2 nM,–,–,–,–,–,–,–,–,–,–,–,–,–,Ki [25]: 2.38 nM; MIC [6]: 30 µM; MIC [26]: 250 µM
Cc1cc(O)cc(O)c1C(=O)OCCCCCCCCCCCCCC[P+](c1ccccc1)(c1ccccc1)c1ccccc1.[Br-],> 125000,1.9 nM,0.51,88 nM,1.4 nM,0.8 nM,> 200000 nM,1.6 nM,> 40000,1.4 nM,0.92,0.89,1.2,5 nM,< 20%,5 - 40,5 - 40,"remaining at 0 min, 5 µM [27]: 100%; remaining at 1 h, 5 µM [28]: 93.4%; remaining at 0.5 h, 5 µM [29]: 101%; remaining at 0 min, 5 µM [30]: 100%; remaining at 0.5 h, 5 µM [31]: 66.9%; remaining at 1 h, 5 µM [32]: 58.2%; Ki [33]: 870 nM; remaining at 0.25 h, 5 µM [34]: 93.4%; remaining at 2 h, 5 µM [35]: 94.1%; Activity [36]: 94.7%; remaining at 0.25 h, 5 µM [37]: 92.3%; metabolised at 24 h [38]: < 30%; Activity [39]: 27.9%; remaining at 2 h, 5 µM [40]: 52.6%; remaining at 0.25 h, 5 µM [41]: 79.4%; remaining at 0 min, 5 µM [42]: 100%; remaining at 1 h, 5 µM [43]: 96.4%; remaining at 2 h, 5 µM [44]: 93.1%; remaining at 0.5 h, 5 µM [45]: 86%; Activity [46]: inactive"
